{"source": "patent US5922689A", "about": "“Cisplatin analogs for cancer treatment” (Unitech Pharmaceuticals, Inc., priority 1997, dated 1999)", "key": {"[1]": {"tested_on": "MCF-7 breast cancer cells", "experiment": "Side-by-side growth assay versus cisplatin, MCF-7, Example 6", "type": "cell-based, human", "conditions": "for MCF-7 cell count: untreated 2.96 × 10^6", "protocol": "(§1) Growth Assay: plate individual cells (human breast cancer cells MCF-7, and MDA-MB-231) at 10^4 cells/mL, 1-mL/well in MEM-10 (MEM+10% FBS, where FBS is fetal Bovine Serum) with 1/100 Penicillin/Strep. Add 1/100 volume of the above Test Solution (10 μL/mL) to triplicate wells. MCF-7 also requires 10 μg/mL insulin; MDA-MB-231 requires no insulin. Incubate cell cultures at 37° C. for 6 days and count the number of cells.\n(§2) side-by-side comparison of cis-[Pt(NH3)2 PtCl(Guanosine)]Cl and cisplatin (performed by Biotherapies Incorporated of Ann Arbor, Mich.)\n(§3) Test Solutions: Test solutions were prepared in the same manner as in Example 5, except, additional test solution was prepared employing cisplatin.\n(§4) Growth Assay: The same method in Example 5 was used. However, the cells studied were normal human mammary cells and breast cancer cells, MCF-7."}, "[2]": {"tested_on": "human breast cancer cells MDA-MB-231", "experiment": "In-vitro growth assay (cell count after 6 days), MDA-MB-231, Example 5", "type": "cell-based", "conditions": "37° C.; for MDA cell count / % inhibition: 6 days; for MDA cell count: untreated 4.00 × 10^5", "protocol": "(§5) In-vitro inhibition of cancer cells by cis-[(NH3)2 PtCl(Guanosine)]Cl (performed by Biotherapies Incorporated, Ann Arbor, Mich.)\nas §1"}, "[3]": {"tested_on": "normal human mammary cells", "experiment": "Side-by-side growth assay versus cisplatin, normal human mammary cells, Example 6", "type": "cell-based", "conditions": "for cell count, normal human mammary cells: untreated 1.00 × 10^5; for % inhibition: normal human mammary cells", "protocol": "as §1, §2, §3, §4"}, "[4]": {"tested_on": "human breast cancer cells MCF-7", "experiment": "In-vitro growth assay (cell count after 6 days), MCF-7, Example 5", "type": "cell-based", "conditions": "37° C.; for MCF-7 cell count / % inhibition: 6 days; for MCF-7 cell count: untreated 6.70 × 10^5", "protocol": "as §5, §1"}, "[5]": {"conditions": "0.05 mg/mL (8.57 × 10^-5 mmole/mL)"}, "[6]": {"conditions": "#95001 0.025 mg/mL (4.29 × 10^-5 mmole/mL)"}, "[7]": {"conditions": "0.00025 mg/mL (4.29 × 10^-7 mmole/mL)"}, "[8]": {"conditions": "0.0025 mg/mL (4.29 × 10^-6 mmole/mL)"}, "[9]": {"conditions": "0.025 mg/mL (4.29 × 10^-5 mmole/mL)"}, "[10]": {"conditions": "0.012 mg/mL (4.00 × 10^-5 mmole/mL)"}, "[11]": {"conditions": "cisplatin 0.025 mg/mL (8.33 × 10^-5 mmole/mL)"}}}
{"compound": "cis-diamminechloroguanosineplatinum chloride [cis-[Pt(NH3)2 Cl(Guanosine)]Cl]", "values": [{"measurement": "MCF-7 cell count", "setting": "[1]; [5]", "result": "6.70 × 10^3"}, {"measurement": "MCF-7 cell count", "setting": "[1]; [6]", "result": "3.30 × 10^3"}, {"measurement": "% inhibition", "setting": "[1]; MCF-7, 0.05 mg/mL (8.57 × 10^-5 mmole/mL)", "result": 99.8, "unit": "%"}, {"measurement": "% inhibition", "setting": "[1]; MCF-7, #95001 0.025 mg/mL (4.29 × 10^-5 mmole/mL)", "result": 97.6, "unit": "%"}, {"measurement": "effectiveness in killing MCF-7 cells versus cisplatin (in words)", "setting": "[1]; ca. 8×10-5 mmole/mL", "result": "as effective as cisplatin in killing MCF-7 cells"}, {"measurement": "MDA cell count", "setting": "[2]; [7]", "result": "3.55 × 10^5"}, {"measurement": "MDA cell count", "setting": "[2]; [8]", "result": "5.00 × 10^4"}, {"measurement": "MDA cell count", "setting": "[2]; [9]", "result": "1.00 × 10^4"}, {"measurement": "% inhibition", "setting": "[2]; MDA-MB-231, 0.00025 mg/mL (4.29 × 10^-7 mmole/mL)", "result": 11.3, "unit": "%"}, {"measurement": "% inhibition", "setting": "[2]; MDA-MB-231, 0.0025 mg/mL (4.29 × 10^-6 mmole/mL)", "result": 87.5, "unit": "%"}, {"measurement": "% inhibition", "setting": "[2]; MDA-MB-231, 0.025 mg/mL (4.29 × 10^-5 mmole/mL)", "result": 97.5, "unit": "%"}, {"measurement": "inhibition of cell growth (in words)", "setting": "[2]; MDA-MB-231, 6 days", "result": "able to inhibit the cell growth"}, {"measurement": "cell count, normal human mammary cells", "setting": "[3]; [5]", "result": "4.50 × 10^4"}, {"measurement": "cell count, normal human mammary cells", "setting": "[3]; [6]", "result": "9.30 × 10^4"}, {"measurement": "toxicity to normal human mammary cells versus cisplatin (in words)", "setting": "[3]; ca. 8×10-5 mmole/mL", "result": "lower than cisplatin"}, {"measurement": "% inhibition", "setting": "[3]; [5]", "result": 55.0, "unit": "%"}, {"measurement": "% inhibition", "setting": "[3]; [6]", "result": 7.0, "unit": "%"}, {"measurement": "MCF-7 cell count", "setting": "[4]; [7]", "result": "6.10 × 10^5"}, {"measurement": "MCF-7 cell count", "setting": "[4]; [8]", "result": "5.00 × 10^4"}, {"measurement": "MCF-7 cell count", "setting": "[4]; [9]", "result": "1.00 × 10^4"}, {"measurement": "% inhibition", "setting": "[4]; MCF-7, 0.00025 mg/mL (4.29 × 10^-7 mmole/mL)", "result": 9.0, "unit": "%"}, {"measurement": "% inhibition", "setting": "[4]; MCF-7, 0.0025 mg/mL (4.29 × 10^-6 mmole/mL)", "result": 92.5, "unit": "%"}, {"measurement": "% inhibition", "setting": "[4]; MCF-7, 0.025 mg/mL (4.29 × 10^-5 mmole/mL)", "result": 98.5, "unit": "%"}, {"measurement": "inhibition of cell growth (in words)", "setting": "[4]; MCF-7, 6 days", "result": "able to inhibit the cell growth"}]}
{"compound": "N.N.[Cl][Pt][Cl]", "note": "[cisplatin, cis-diamminedichloroplatinum]", "values": [{"measurement": "MCF-7 cell count", "setting": "[1]; [10]", "result": "5.00 × 10^3"}, {"measurement": "% inhibition", "setting": "[1]; MCF-7, 0.012 mg/mL (4.00 × 10^-5 mmole/mL)", "result": 99.8, "unit": "%"}, {"measurement": "% inhibition", "setting": "[1]; MCF-7, cisplatin 0.025 mg/mL (8.33 × 10^-5 mmole/mL)", "result": 99.9, "unit": "%"}, {"measurement": "MCF-7 cell count", "setting": "[1]; [11]", "result": "5.00 × 10^3"}, {"measurement": "cell count, normal human mammary cells", "setting": "[3]; [10]", "result": "1.00 × 10^4"}, {"measurement": "cell count, normal human mammary cells", "setting": "[3]; [11]", "result": "3.30 × 10^3"}, {"measurement": "% inhibition", "setting": "[3]; [10]", "result": 90.0, "unit": "%"}, {"measurement": "% inhibition", "setting": "[3]; [11]", "result": 99.0, "unit": "%"}]}
